Read-outs that look alike come from different tables or passages of the source.

Data set [1] is described as follows: Rat brain cassette exposure study. The following applies: intravenous cassette dosing; for half-life: male, Sprague Dawley, rat, brain, read-out: calculated half-life (t1/2) in rat brain tissue. The format is in vivo, Sprague Dawley rat. Here is the method: The in vivo pharmacokinetic characteristics of the example compounds of the invention were compared directly with the known beta-amyloid specific ligand AZD2184 (Johnson, A. E., et al, Journal of Neurochemistry (2009), Vol. 108, pages 1177-1186). Rat brain exposure to three compounds of the invention and AZD2184 was measured by intravenous cassette dosing three test compound: Example Compound 43, Example Compound 47 and Example Compound 48; and AZD2184 (Novandi Chemistry) (concentration of 0.25 μmol/mL each) using the procedure previously described in Johnson, A. E., et al, Journal of Neurochemistry (2009), Vol. 108, pages 1177-1186. 6 male Sprague Dawley rat were used in the experiments, three rats per time point (2 min and 30 min).

The conditions of data set [2]: literature value; cited from earlier work.
The target of the next data set is T1, 0N4R Tau fibrils (Homo sapiens, UniProt P10636).
T1 construct: made in house
T1 sequence (P10636 1-383 isoform P10636-6): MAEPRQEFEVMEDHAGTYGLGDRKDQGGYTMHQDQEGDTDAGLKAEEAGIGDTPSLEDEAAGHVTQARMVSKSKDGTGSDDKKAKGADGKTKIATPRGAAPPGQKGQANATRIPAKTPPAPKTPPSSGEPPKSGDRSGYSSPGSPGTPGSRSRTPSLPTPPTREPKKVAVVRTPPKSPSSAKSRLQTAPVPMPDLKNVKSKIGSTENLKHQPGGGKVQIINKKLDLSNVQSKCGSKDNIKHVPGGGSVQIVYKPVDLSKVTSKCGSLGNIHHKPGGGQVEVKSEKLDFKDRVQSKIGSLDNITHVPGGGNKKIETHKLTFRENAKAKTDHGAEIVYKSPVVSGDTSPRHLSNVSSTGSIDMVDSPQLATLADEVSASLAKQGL
Briefly: In vitro competitive binding to 0N4R tau fibrils in the presence of [^3H]-Example Compound 68 (FIG. 1).

The target in data set [3] is T2, MAO-A (Rattus norvegicus, UniProt P21396).
T2 construct: tissue EuroFins Pharma Discovery Service (assay service); host or cells: rat cerebral cortex (own knowledge of the vendor's assay)
T2 sequence (P21396 1-526): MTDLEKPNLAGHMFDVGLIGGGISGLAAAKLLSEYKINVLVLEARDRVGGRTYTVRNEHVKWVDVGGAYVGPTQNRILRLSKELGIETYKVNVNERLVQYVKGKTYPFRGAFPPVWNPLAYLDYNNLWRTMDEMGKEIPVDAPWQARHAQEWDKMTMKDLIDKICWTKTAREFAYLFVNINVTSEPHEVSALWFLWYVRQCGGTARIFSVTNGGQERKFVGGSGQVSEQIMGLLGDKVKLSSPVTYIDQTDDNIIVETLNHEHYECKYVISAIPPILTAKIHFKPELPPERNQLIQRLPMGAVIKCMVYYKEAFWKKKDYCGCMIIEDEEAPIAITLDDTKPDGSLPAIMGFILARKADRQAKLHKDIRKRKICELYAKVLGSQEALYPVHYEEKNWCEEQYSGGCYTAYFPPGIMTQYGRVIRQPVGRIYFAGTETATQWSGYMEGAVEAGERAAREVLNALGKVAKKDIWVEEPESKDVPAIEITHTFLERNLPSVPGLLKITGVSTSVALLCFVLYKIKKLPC
Briefly: MAO-A binding assay ([^3H]-Ro41-1049). As to conditions: tested at 1 μM, rat cerebral cortex; for inhibition at 1 µM: read-out: % inhibition of control specific binding, MAO-A binding assay. Here is the method:
A monoamine oxidase inhibitor (MAO) binding assay for MAO-A was performed (EuroFins Pharma Discovery Service) for Example Compound 43, Example Compound 48 and the known tau ligand THK-5117. The three compounds were tested at 1 μM. Compound binding was calculated as a % inhibition of the binding of the selective MAO-A inhibitor [^3H]-Ro41-1049 for MAO-A binding.
The MAO-A binding assay was carried our as described in Cesura, A. M., et al, Mol. Phamacol. (1990), Vol 37, pages 358-366, using the materials and conditions described in Table 3.
The results of the MAO-A binding assay are expressed as a percent inhibition of control specific binding obtained in the presence of the test compounds: […]

Data set [4] concerns the target T3, MAO-A (Homo sapiens, UniProt P21397).
T3 construct: EuroFins Pharma Discovery Service (assay service)
T3 sequence (P21397 1-527): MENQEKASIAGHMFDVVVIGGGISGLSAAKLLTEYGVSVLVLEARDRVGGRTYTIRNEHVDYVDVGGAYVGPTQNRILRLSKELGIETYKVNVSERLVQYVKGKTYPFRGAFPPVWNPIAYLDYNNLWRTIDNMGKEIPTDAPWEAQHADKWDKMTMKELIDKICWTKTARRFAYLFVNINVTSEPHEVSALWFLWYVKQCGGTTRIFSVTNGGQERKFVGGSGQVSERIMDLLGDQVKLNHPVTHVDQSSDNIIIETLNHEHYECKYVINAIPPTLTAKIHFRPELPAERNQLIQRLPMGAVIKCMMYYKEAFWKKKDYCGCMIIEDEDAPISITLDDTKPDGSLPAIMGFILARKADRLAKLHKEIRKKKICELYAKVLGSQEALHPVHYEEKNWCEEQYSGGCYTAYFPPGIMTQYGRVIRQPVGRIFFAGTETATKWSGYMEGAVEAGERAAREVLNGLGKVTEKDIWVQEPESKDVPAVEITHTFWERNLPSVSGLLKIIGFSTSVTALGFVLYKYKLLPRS
Briefly: MAO-A enzyme and uptake assay (kynuramine). The class given is biochemical. As to conditions: tested at 1 μM, human placenta; for inhibition at 1 µM: read-out: % inhibition of control enzyme activity, MAO-A. Here is the method: (§1) MAO enzyme and uptake assays were also performed (EuroFins Pharma Discovery Service) as described in Weyler, W., et al., J. Biol. Chem. (1985), Vol. 260, pages 13199-13207, using the materials and conditions described in Table 4; and as described in Tsugeno, U., et al., J Biochem. (1995), Vol. 118, pages 974-980, using the materials and conditions described in Table 5, for Example Compound 43, Example Compound 48 and the known tau ligand THK-5117. The three compounds were tested at 1 μM. Compound enzyme/uptake inhibition effect was calculated as a % inhibition of control enzyme activity.
(§2) The results of the enzyme and uptake assays are expressed as a percent inhibition of control specific activity obtained in the presence of the test compounds: […]

The target of the next data set is T4, MAO-B (Homo sapiens, UniProt P27338).
T4 construct: EuroFins Pharma Discovery Service (assay service)
T4 sequence (P27338 1-520): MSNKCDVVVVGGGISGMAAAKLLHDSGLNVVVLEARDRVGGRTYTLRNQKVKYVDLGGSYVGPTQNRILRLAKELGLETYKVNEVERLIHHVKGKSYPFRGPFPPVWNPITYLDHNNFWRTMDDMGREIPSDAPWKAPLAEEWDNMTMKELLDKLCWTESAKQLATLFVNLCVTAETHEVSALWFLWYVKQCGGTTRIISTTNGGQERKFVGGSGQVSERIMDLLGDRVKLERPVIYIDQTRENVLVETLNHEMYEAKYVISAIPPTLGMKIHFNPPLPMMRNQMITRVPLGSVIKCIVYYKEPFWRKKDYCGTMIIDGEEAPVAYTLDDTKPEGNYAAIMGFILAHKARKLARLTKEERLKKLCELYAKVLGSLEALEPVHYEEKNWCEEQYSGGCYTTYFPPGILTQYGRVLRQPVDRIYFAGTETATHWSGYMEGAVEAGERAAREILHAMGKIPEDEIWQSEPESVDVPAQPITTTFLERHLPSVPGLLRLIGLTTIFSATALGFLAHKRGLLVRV
Briefly: MAO-B recombinant enzyme assay (D-Luciferin derivative). The class given is biochemical. The following applies: tested at 1 μM; for inhibition at 1 µM: read-out: % inhibition of control enzyme activity, MAO-B. The method, then: as §1, §2

For another data set, the system named is tau plaques. As to the kind of experiment: Autoradiography on brain sections from CBD and PSP patients. The class given is binding, human. The following applies: 3 nM radiotracer, with or without 1 μM unlabeled compound; compared with antibody AT8. The method, then: To examine binding of the example compounds of the present invention to tau plaques in vitro, autoradiography was carried out on brain sections from corticobasal degeneration (CBD) and progressive supranuclear palsy (PSP) patients incubated with [^3H]-Example Compound 72 or [^3H]-Example Compound 48 in the presence or absence of unlabeled Example Compound […] (1 μM) or unlabeled Example Compound 48 (1 μM), respectively. The experiment was performed as previously described in Johnson, A. E., et al, Journal of Neurochemistry (2009), Vol. 108, pages 1177-1186, but using post mortem cortical samples from corticobasal degeneration (CBD) and progressive supranuclear palsy (PSP) patients instead of from Alzheimer's disease patients.
Sequence of tau plaques (P10636 561-708 limits assumed): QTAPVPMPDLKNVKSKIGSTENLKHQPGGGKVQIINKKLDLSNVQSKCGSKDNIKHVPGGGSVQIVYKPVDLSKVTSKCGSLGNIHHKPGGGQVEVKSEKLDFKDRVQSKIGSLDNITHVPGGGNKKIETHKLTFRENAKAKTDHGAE
Briefly, brain sections from the cortical samples were incubated for 30 min at 22° C. in 50 mN Tris buffer (pH 7.4) together with 3 nM [^3H]-Example Compound 72 or 3 nM [^3H]-Example Compound 48 in the presence of absence of on unlabeled Example Compound 72 (1 μM) or unlabeled Example Compound 48 (1 μM), respectively. The sections were then washed (3×10 min) in Tris buffer (1° C.) followed by a rinse in deionized water (1° C.) and air-dried at 22° C. in front of a fan. Binding was then measured and analysed as described in Johnson, A. E., et al.
The tau pathology was confirmed on adjacent brain sections by immunohisto-chemistry (IHC) using Phospho-Tau (Ser202, Thr205) Monoclonal Antibody (AT8) as previously as described in Biernat, J., et al, EMBO J. (1992) Vol. 4, pages 1593-1597. AT8 was obtained from Thermo Fisher Scientific (Phospho-PHF-Tau, Thermo Ficher Scientific, Catalog No. MN1020, Stock cone: 0.2 mg/ml, Working solution: 1/100).

For data set [5] the following is noted: cited from earlier work.

Consider `CNc1ccc(-c2nc3ccc(O)cc3s2)cn1` [AZD2184, reference compound], for which the “calculated half-life (t1/2) in rat brain tissue” value in data set [1] (samples at 2 min and 30 min) is given as 6.65 min. The “t1/2 reported in Table 3 of Johnson, A. E., et al” value in data set [2] was 6.8 min.

As for `OCC1CCN(c2ccc(-c3cc4cc(O)ccc4[nH]3)c(F)n2)CC1` [Example Compound 48, 2-{2-Fluoro-6-[4-(hydroxymethyl)piperidin-1-yl]pyridin-3-yl}-1H-indol-5-ol], the “tau binding site shared (competition with [^3H]-Example Compound 68)” value on 0N4R Tau fibrils is recorded as “share the same binding site”. For the same molecule, the “clearance from normal rat brain tissue” value in data set [1] (2 min and 30 min) is on record as “rapidly cleared”. For the same molecule, the half-life in data set [1] (samples at 2 min and 30 min) was 8.21 min. Further, the inhibition at 1 µM on MAO-A [3], at MAO-A [4] and at MAO-B was less than 25% each time.

Consider `CNc1ccc(-c2ccc3cc(OCC(O)CF)ccc3n2)cc1` (stereo not drawn) [THK-5117, reference compound], for which the “% inhibition of control specific binding, MAO-A binding assay” value at MAO-A [3] is listed as no more than 50%. For the same molecule, the “% inhibition of control enzyme activity, MAO-A” value at MAO-A [4] is no more than 50%. Moreover, the “% inhibition of control enzyme activity, MAO-B” value at MAO-B is reported as no more than 50%.

Turning to “[^3H] labeled 2-(2-fluoro-6-{4-[hydroxymethyl]piperidin-1-yl}pyridin-3-yl)-1H-indol-5-ol [[^3H]-Example Compound 48]”, in the data set with tau plaques, the “radiotracer binding in CBD brain tissue” value is “displaceable binding in CBD brain tissue that correlates with the tau-specific antibody AT8” and the “radiotracer binding in PSP brain tissue” value is given as “displaceable binding in PSP brain tissue that correlates with the tau-specific antibody AT8”.

As to `NC(=O)c1ccc2nc(-c3cnc(N4CCC(CCF)CC4)nc3)sc2c1` [Example Compound 43, 2-{2-[4-(2-Fluoroethyl)piperidin-1-yl]pyrimidin-5-yl}-1,3-benzothiazole-6-carboxamide], the half-life in data set [1] (samples at 2 min and 30 min) is 379 min. The inhibition at 1 µM on MAO-A [3], on MAO-A [4] and on MAO-B was less than 25% in each case.

Consider `CNc1ccc(/C=C/C=C/c2nc3ccc(O)cc3s2)cn1` [^11C-PBB3], for which the “radiochemical purity after exposure to fluorescent light” value in data set [5] (at 1 min after exposure) was 77%; in data set [5] (from 10 to 60 min), “approximately 50%”.

Consider “[^3H] labeled (1-{5-[5-(2-Fluoroethoxy)-1H-indol-2-yl]pyrimidin-2-yl}piperidin-4-yl)methanol [[^3H]-Example Compound 72]”, for which, in the data set on tau plaques, the “radiotracer binding in CBD brain tissue” value is “displaceable binding in CBD brain tissue that correlate with tau-specific antibody AT8” and the “radiotracer binding in PSP brain tissue” value was “displaceable binding in PSP brain tissue that correlate with tau-specific antibody AT8”.

The values are drawn from US12636385B2, “Selective ligands for tau aggregates” (Sentonix, Inc., priority 2018, dated 2026).
